Measurements published in ChEMBL document CHEMBL1811878, “Heteroatom-substituted analogues of orphan nuclear receptor small heterodimer partner ligand and apoptosis inducer (E)-4-[3-(1-Adamantyl)-4-hydroxyphenyl]-3-chlorocinnamic acid” (J Med Chem, 2011).
≈ marks a conversion by molar mass, not a printed value. Calls of active or inactive are those of the source. No cut-off for these calls is given here.

How the values were obtained:
HeLa [1] = test: Induction of apoptosis in human HeLa cells assessed as ATP level at 0.5 uM after 48 hrs by luminometric analysis; type: functional
SK-BR-3 [2] = test: Induction of apoptosis in human SKBR3 cells assessed as DNA fragmentation at 1 uM after 72 hrs by acridine orange staining; type: functional
HeLa [3] = test: Induction of apoptosis in human HeLa cells assessed as ATP level at 1 uM after 72 hrs by acridine orange staining; type: functional
[4] = Induction of apoptosis in mouse MMTV-Wnt-1 cells assessed as cell viability after 72 hrs by DAPI staining based cell counting; type: functional
HT-29 [5] = test: Induction of apoptosis in human HT-29 cells assessed as decrease in ATP level at 10 uM after 72 hrs by luminescence assay; type: functional; design: scale not given: the % may be the effect or the level left
A549 [6] = test: Induction of apoptosis in human A549 cells assessed as decrease in ATP level at 10 uM after 72 hrs by luminescence assay; type: functional, cell-based
PC-3 [7] = test: Induction of apoptosis in human PC3 cells assessed as decrease in ATP level at 10 uM after 72 hrs by luminescence assay; type: functional, cell-based
A549 [8] = test: Induction of apoptosis in human A549 cells assessed as decrease in ATP level after 72 hrs by luminescence assay; type: functional, cell-based
PC-3 [9] = test: Induction of apoptosis in human PC3 cells assessed as decrease in ATP level after 72 hrs by luminescence assay; type: functional, cell-based
HT-29 [10] = test: Induction of apoptosis in human HT-29 cells assessed as decrease in ATP level at 10 uM after 72 hrs by luminescence assay relative to control; type: functional; design: scale not given: the % may be the effect or the level left
HT-29 [11] = test: Induction of apoptosis in human HT-29 cells assessed as decrease in ATP level after 72 hrs by luminescence assay; type: functional, cell-based
A549 [12] = test: Induction of apoptosis in human A549 cells assessed as decrease in ATP level at 5 uM after 72 hrs by luminescence assay; type: functional; design: scale not given: the % may be the effect or the level left
PC-3 [13] = test: Induction of apoptosis in human PC3 cells assessed as decrease in ATP level at 5 uM after 72 hrs by luminescence assay; type: functional; design: scale not given: the % may be the effect or the level left
HT-29 [14] = test: Induction of apoptosis in human HT-29 cells assessed as decrease in ATP level at 5 uM after 72 hrs by luminescence assay; type: functional; design: scale not given: the % may be the effect or the level left
KG-1 [15] = test: Growth inhibition in human KG1 cells expressing p53 gene at 1 uM after 48 hrs by MTT assay; type: functional; details: KG-1, 48 h, read-out: GI
KG-1 [16] = test: Growth inhibition in human KG1 cells expressing p53 gene at 5 uM after 48 hrs by MTT assay; type: functional; details: KG-1, 48 h, read-out: GI
KG-1 [17] = test: Induction of apoptosis in human KG1 cells expressing p53 gene assessed as DNA fragmentation at 1 uM after 48 hrs by acridine orange staining method; type: functional
KG-1 [18] = test: Induction of apoptosis in human KG1 cells assessed as DNA fragmentation at 5 uM after 48 hrs by acridine orange staining method; type: functional
[19] = Aqueous solubility of the compound in PBS at pH 7.2 by UV spectrophotometric analysis; type: physicochemical; details: PBS, read-out: solubility
[20] = Aqueous solubility of the compound in water at pH 5 by UV spectrophotometric analysis; type: physicochemical
KG-1 [21] = test: Induction of apoptosis in human KG1 cells expressing p53 gene assessed as DNA fragmentation at 0.1 to 1 uM after 48 hrs by acridine orange staining method; type: functional, cell-based
KG-1 [22] = test: Growth inhibition in human KG1 cells expressing p53 gene at 0.1 to 1 uM after 48 hrs by MTT assay; type: functional, cell-based
MDA-MB-231 [23] = test: Growth inhibition of retinoid-resistant human MDA-MB-231 cells expressing p53 and ERbeta gene at 0.1 to 1 uM by MTT assay; type: functional, cell-based; details: TDE = time-dependent effect
MDA-MB-231 [24] = test: Growth inhibition of retinoid-resistant human MDA-MB-231 cells expressing p53 and ERbeta gene after 48 hrs by MTT assay; type: functional, cell-based
MDA-MB-231 [25] = test: Induction of apoptosis in retinoid-resistant human MDA-MB-231 cells expressing p53 and ERbeta gene assessed as DNA fragmentation at 0.1 to 1 uM by acridine orange staining method; type: functional, cell-based; details: TDE = time-dependent effect
MDA-MB-231 [26] = test: Induction of apoptosis in retinoid-resistant human MDA-MB-231 cells expressing p53 and ERbeta gene assessed as DNA fragmentation after 48 hrs by acridine orange staining method; type: functional, cell-based
MDA-MB-231 [27] = test: Growth inhibition of retinoid-resistant human MDA-MB-231 cells expressing p53 and ERbeta gene at 1 uM after 24 hrs by MTT assay; type: functional; details: MDA-MB-231, 24 h, read-out: GI
MDA-MB-231 [28] = test: Growth inhibition of retinoid-resistant human MDA-MB-231 cells expressing p53 and ERbeta gene at 1 uM after 48 hrs by MTT assay; type: functional; details: MDA-MB-231, 48 h, read-out: GI
MDA-MB-231 [29] = test: Induction of apoptosis in retinoid-resistant human MDA-MB-231 cells expressing p53 and ERbeta gene assessed as DNA fragmentation at 1 uM after 24 hrs by acridine orange staining method; type: functional
MDA-MB-231 [30] = test: Induction of apoptosis in retinoid-resistant human MDA-MB-231 cells expressing p53 and ERbeta gene assessed as DNA fragmentation at 1 uM after 48 hrs by acridine orange staining method; type: functional
SK-BR-3 [31] = test: Induction of apoptosis in estrogen receptor-deficient human SKBR3 cells assessed as DNA fragmentation at 0.5 uM by acridine orange staining; type: functional, cell-based; details: TDE = time-dependent effect
HeLa [32] = test: Induction of apoptosis in human HeLa cells assessed as ATP level at 0.5 uM by luminometric analysis; type: functional, cell-based; details: TDE = time-dependent effect
SK-BR-3 [33] = test: Induction of apoptosis in estrogen receptor-deficient human SKBR3 cells assessed as DNA fragmentation at 0.5 uM after 48 hrs by acridine orange staining; type: functional
HT-29 [34] = test: Growth inhibition of ERalpha-negative and ERbeta-positive human HT-29 cells at 10 uM after 72 hrs in presence of 10% FCS; type: functional; details: HT-29, 72 h, read-out: GI
A549 [35] = test: Growth inhibition of ERalpha-negative and ERbeta-positive human A549 cells at 10 uM after 72 hrs; type: functional; details: A549, 72 h, read-out: GI
HeLa [36] = test: Growth inhibition of human HeLa cells at 1 uM after 96 hrs by MTT assay in presence of 5% serum; type: functional; details: read-out: GI
HeLa [37] = test: Induction of apoptosis in human HeLa cells plated on serum free media for 24 hrs assessed as caspase 3 cleavage at 10 uM after 12 hrs; type: functional
SK-BR-3 [38] = test: Growth inhibition of estrogen receptor-deficient human SKBR3 cells at 1 uM after 144 hrs by MTT assay relative to control in presence of 5% serum; type: functional; details: SK-BR-3, 144 h, read-out: GI
SK-BR-3 [39] = test: Growth inhibition of estrogen receptor-deficient human SKBR3 cells at 1 uM after 216 hrs by MTT assay relative to control in presence of 5% serum; type: functional; details: SK-BR-3, 216 h, read-out: GI

Question: With `O=C(O)/C=C/c1ccc(-c2ccc(O)c(C34CC5CC(CC(C5)C3)C4)c2)nc1` as the compound, how does the Activity (HeLa [1]) read?
Answer: >60%

Question: What about the Activity (SK-BR-3 [2]) of the same compound?
Answer: 15%

Question: And the Activity (HeLa [3])?
Answer: 2.6%

Question: And the IC50 [4]?
Answer: 19 nM

Question: What about the Activity (HT-29 [5]) of the same compound?
Answer: >=40%

Question: What about the Activity (A549 [6]) of the same compound?
Answer: Active

Question: And the Activity (PC-3 [7])?
Answer: Active

Question: What about the Activity (A549 [8]) of the same compound?
Answer: Dose-dependent effect

Question: What about the Activity (PC-3 [9]) of the same compound?
Answer: Dose-dependent effect

Question: What about the Activity (HT-29 [10]) of the same compound?
Answer: <60%

Question: And the Activity (HT-29 [11])?
Answer: Dose-dependent effect

Question: And the Activity (A549 [12])?
Answer: 30%

Question: What about the Activity (PC-3 [13]) of the same compound?
Answer: 30%

Question: What about the Activity (HT-29 [14]) of the same compound?
Answer: 30%

Question: And the inhibition of growth at 1 µM (KG-1 [15])?
Answer: 85%

Question: And the inhibition of growth at 5 µM (KG-1 [16])?
Answer: 90%

Question: What about the Activity (KG-1 [17]) of the same compound?
Answer: 68%

Question: And the Activity (KG-1 [18])?
Answer: 84%

Question: And the solubility [19]?
Answer: 14 µM (≈ 5.26 µg/mL)

Question: And the solubility [20]?
Answer: 7 µM (≈ 2.63 µg/mL)

Question: What about the Activity (KG-1 [21]) of the same compound?
Answer: Active

Question: And the “growth inhibition (GI)” value (KG-1 [22])?
Answer: Active

Question: And the “growth inhibition (GI)” value (MDA-MB-231 [23])?
Answer: tde

Question: What about the “growth inhibition (GI)” value (MDA-MB-231 [24]) of the same compound?
Answer: Dose-dependent effect

Question: And the Activity (MDA-MB-231 [25])?
Answer: tde

Question: And the Activity (MDA-MB-231 [26])?
Answer: Dose-dependent effect

Question: What about the inhibition of growth at 1 µM (MDA-MB-231 [27]) of the same compound?
Answer: 86%

Question: What about the inhibition of growth at 1 µM (MDA-MB-231 [28]) of the same compound?
Answer: 85%

Question: And the Activity (MDA-MB-231 [29])?
Answer: 38%

Question: And the Activity (MDA-MB-231 [30])?
Answer: 82%

Question: What about the Activity (SK-BR-3 [31]) of the same compound?
Answer: tde

Question: What about the Activity (HeLa [32]) of the same compound?
Answer: tde

Question: What about the Activity (SK-BR-3 [33]) of the same compound?
Answer: 1.9%

Question: Which results are given for `CC1=C(/C=C/C(C)=C/C=C/C(C)=C/C(=O)O)C(C)(C)CCC1` [TRETINOIN]?
Answer: inhibition of growth at 10 µM (HT-29 [34]): 8%; inhibition of growth at 10 µM (A549 [35]): 5%; inhibition of growth at 1 µM (HeLa [36]): 71%; Activity (HeLa [37]): 87%; inhibition of growth at 1 µM (SK-BR-3 [38]): 36%; inhibition of growth at 1 µM (SK-BR-3 [39]): 24%
